Data published in article PMC4231751, “Highly potent dUTPase inhibition by a bacterial repressor protein reveals a novel mechanism for gene expression control” (Nucleic Acids Research, 2014).

Biological target: T1, Φ11 dUTPase (Φ11DUT) (Staphylococcus phage phi 11, UniProt Q8SDV3)
T1 construct: tag-free, expressed from pETDuet-1; Q-sepharose and Superdex 75; homotrimer
Assay: phenol red proton release assay, […] nm
Type: biochemical
Details: 30 μM dUTP, 10 nM enzyme, 1 mM Hepes pH 7.5, 5 mM MgCl2, 150 mM KCl, 293 K

Q: `O=c1ccn([C@H]2C[C@H](O)[C@@H](COP(=O)(O)OP(=O)(O)OP(=O)(O)O)O2)c(=O)[nH]1` [dUTP] was tested. Which “phenol red proton release assay, 559 nm” value did it give?
A: Proton release during the transformation of dUTP into dUMP and PPi was followed continuously
